Literature values as cited in patent US20130203688A1, “SUGAR PLANT DERIVED BY-PRODUCTS AND METHODS OF PRODUCTION THEREOF” (FÉDÉRATION DES PRODUCTEURS ACÉRI-COLES DU QUÉBEC, priority 2010, published 2013).
Values belong to the compound of their own block, whether it stands above or below them.

Properties: α-glucosidase-inhibiting action (α-glucosidase): α- glucosidase- inhibiting
SMILES: COc1ccc(C2OC(=O)C(O)(Cc3ccc(OC4OC(C)C(O)C(O)C4O)c(OC)c3)C2CO)cc1OC (centres unmarked) [compound 7]
Properties: human HL-60 proliferation-inhibiting action (human HL-60): human HL-60 proliferation- inhibiting

SMILES: COc1cc(C2Oc3c(OC)cc(CCCO)cc3C2CO)ccc1O (centres unmarked) [compound 15]
Properties: antitumor (tumor): Antitumor/

SMILES: COc1cc(/C=C/CO)cc(OC)c1O [compound 10, Syringenin]
Properties: TNFα-secretion inhibitor (TNFα secretion): TNFα- secretion inhibitor

SMILES: Oc1ccccc1O [compound 11, 1,2-Benzenediol(catechol)]
Properties: inhibit the synthesis of melanin (synthesis of melanin): inhibit the synthesis of melanin | Properties: tyrosinase inhibitory (tyrosinase): inhibit the activity of tyrosinase | Properties: antibacterial (bacteria): Antibacterial

Properties: tyrosinase inhibitory (tyrosinase): tyrosinase inhibitory
SMILES: COc1cc(C2c3c(cc(OC)c(O)c3OC)CC(CO)C2CO)cc(OC)c1O (centres unmarked) [compound 8, Lyoniresinol]
